# Molecular target: Genome polyprotein (Hepatitis C virus genotype 1a (isolate H77), UniProt P27958)
# Experiment: Enzyme Inhibition Assay
# Protocol: NS3/4A protease was preincubated with increasing concentration of drugs in protease reaction buffer for 1 hour. Inhibition assays were performed in a reaction volume of 60μL. The reaction was initiated by the rapid injection of 5μL of HCV NS3/4A protease substrate to a final concentration of 200nM.
# Sequence of Genome polyprotein (P27958 1027-1657 limits assumed): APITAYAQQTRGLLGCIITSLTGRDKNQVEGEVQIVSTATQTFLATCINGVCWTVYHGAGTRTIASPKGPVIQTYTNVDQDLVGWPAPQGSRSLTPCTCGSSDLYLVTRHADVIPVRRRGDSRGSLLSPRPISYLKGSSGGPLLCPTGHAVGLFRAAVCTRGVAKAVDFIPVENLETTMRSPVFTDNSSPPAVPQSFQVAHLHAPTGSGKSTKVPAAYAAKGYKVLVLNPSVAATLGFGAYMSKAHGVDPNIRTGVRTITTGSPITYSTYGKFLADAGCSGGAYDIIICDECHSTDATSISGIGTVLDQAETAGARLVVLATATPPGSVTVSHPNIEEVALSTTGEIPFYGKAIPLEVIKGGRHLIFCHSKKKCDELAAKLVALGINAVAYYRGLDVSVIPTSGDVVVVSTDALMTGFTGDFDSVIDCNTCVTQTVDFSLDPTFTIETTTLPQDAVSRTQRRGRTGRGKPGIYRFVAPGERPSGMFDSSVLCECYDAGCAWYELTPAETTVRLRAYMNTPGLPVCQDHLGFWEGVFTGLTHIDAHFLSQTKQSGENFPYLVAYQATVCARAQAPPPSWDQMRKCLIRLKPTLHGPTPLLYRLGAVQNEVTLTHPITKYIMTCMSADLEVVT
# Sequence of Genome polyprotein (P27958 1658-1711 limits assumed): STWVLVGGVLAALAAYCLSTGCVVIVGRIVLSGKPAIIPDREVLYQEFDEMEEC
row,SMILES,Ki [nM]
1,C=C[C@@H]1C[C@]1(NC(=O)C1C[C@@H]2CN1C(=O)[C@H](C(C)(C)C)NC(=O)OCC(C)(C)CCCCc1cccc3c1CN(C3)C(=O)O2)C(=O)NS(=O)(=O)C1CC1 (stereo partly drawn) [Dan-mcP2P4],0.22
2,C=C[C@@H]1C[C@]1(NC(=O)[C@@H]1CC2CN1C(=O)[C@H](C(C)(C)C)NC(=O)O[C@@H]1C[C@H]1CCCCCc1nc3ccc(OC)cc3nc1O2)C(=O)NS(=O)(=O)C1CC1 (stereo partly drawn) [MK-5172],0.06
3,CC[C@@H]1C[C@]1(NC(=O)[C@@H]1C[C@@H]2CN1C(=O)[C@H](C(C)(C)C)NC(=O)OCC(C)(C)CCCCc1cccc3c1CN(C3)C(=O)O2)C(=O)NS(=O)(=O)C1CC1 [Vaniprevir],0.46
